Test results reported in patent US7709481B2, “Phenyl-1,2,4-oxadiazolone derivatives, processes for their preparation and methods for their use as pharmaceuticals” (Sanofi-Aventis, priority 2005, dated 2010).
pEC50: −log10 of the molar value.

Key:
[1] = target: T1, human PPARdelta (Homo sapiens, UniProt Q03181); assay: Cellular PPARdelta assay (HEK PPARdelta reporter cell line, luciferase); type: cell-based; settings: 24 h incubation
T1 construct: human PPARdelta receptor (amino acids S139-Y441); expressed in transfected cells; plasmid pcDNA3
T1 sequence (Q03181 139-441): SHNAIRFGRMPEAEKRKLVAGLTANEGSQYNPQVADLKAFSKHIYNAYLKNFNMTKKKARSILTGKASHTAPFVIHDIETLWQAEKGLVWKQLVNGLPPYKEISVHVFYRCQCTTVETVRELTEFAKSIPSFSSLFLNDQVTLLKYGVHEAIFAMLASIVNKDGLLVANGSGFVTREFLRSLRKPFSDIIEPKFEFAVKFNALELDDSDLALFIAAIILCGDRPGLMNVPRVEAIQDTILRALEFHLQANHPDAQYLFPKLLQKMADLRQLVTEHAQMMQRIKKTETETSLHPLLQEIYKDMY
Experimental: The raw data from the luminometer are transferred into a Microsoft Excel file. Dose-effect plots and EC50 values of PPAR agonists are calculated using the XL.Fit program as specified by the manufacturer (IDBS). […] Compounds of the invention of the formula I activate the PPARalpha receptor. Determination of EC50 values of PPAR agonists in the cellular PPARdelta assay The potency of substances which bind to human PPARdelta and activate it in an agonistic manner is analyzed using a stably transfected HEK cell line (HEK=human embryo kidney) which is referred to here as PPARdelta reporter cell line. In analogy to the assay described for PPARalpha, the PPARdelta reporter cell line also contains two genetic elements, a luciferase reporter element (pdeltaM-GAL4-Luc-Zeo) and a PPARdelta fusion protein (GR-GAL4-humanPPARdelta-LBD) which mediates expression of the luciferase reporter element depending on a PPARdelta ligand. The stably and constitutively expressed fusion protein GR-GAL4-humanPPARdelta-LBD binds in the cell nucleus of the PPARdelta reporter cell line via the GAL4 protein portion to the GAL4 DNA binding motifs 5′-upstream of the luciferase reporter element which is stably integrated in the genome of the cell line. There is only little expression of the luciferase reporter gene in the absence of a PPARdelta ligand if fatty acid-depleted fetal calf serum (cs-FCS) is used in the assay. PPARdelta ligands bind and activate the PPARdelta fusion protein and thereby stimulate expression of the luciferase reporter gene. The luciferase which is formed can be detected by means of chemiluminescence via an appropriate substrate.
The production of the stable PPARdelta reporter cell line is based on a stable HEK-cell clone which was stably transfected with a luciferase reporter element. This step was already described above in the section “construction of the PPARalpha reporter cell line”. In a second step, the PPARdelta fusion protein (GR-GAL4-humanPPARdelta-LBD was stably introduced into this cell clone. For this purpose, the cDNA coding for the N-terminal 76 amino acids of the glucocorticoid receptor (Accession # P04150) was linked to the cDNA section coding for amino acids 1-147 of the yeast transcription factor GAL4 (Accession # P04386). The cDNA of the ligand-binding domain of the human PPARdelta receptor (amino acids S139-Y441; Accession # L07592) was cloned in at the 3′-end of this GR-GAL4 construct. The fusion construct prepared in this way (GR-GAL4-humanPPARdelta-LBD) was recloned into the plasmid pcDNA3 (Invitrogen) in order to enable constitutive expression by the cytomegalovirus promoter. This plasmid was linearized with a restriction endonuclease and stably transfected into the previously described cell clone containing the luciferase reporter element. The resulting PPARdelta reporter cell line which contains a luciferase reporter element and constitutively expresses the PPARdelta fusion protein (GR-GAL4-human PPARdelta-LBD) was isolated by selection with zeocin (0.5 mg/ml) and G418 (0.5 mg/ml).
The activity of PPARdelta agonists is determined in a 3-day assay in exact analogy to the procedure already described for the PPARalpha reporter cell line except that the PPARdelta reporter cell line and a specific PPARdelta agonist was used as a standard to control test efficacy. PPARdelta EC50 values in the range from 0.3 nM to >10 μM were measured for the PPAR agonists of Examples 1 to 69 described in this application. Compounds of the invention of the formula I activate the PPARdelta receptor.

[2] = target: T2, human PPARalpha (Homo sapiens, UniProt Q07869); assay: Cellular PPARalpha assay (HEK PPARalpha reporter cell line, luciferase); type: cell-based; settings: 24 h incubation
T2 construct: human PPARalpha receptor (amino acids S167-Y468); expressed in transfected cells; plasmid pcDNA3
T2 sequence (Q07869 167-468): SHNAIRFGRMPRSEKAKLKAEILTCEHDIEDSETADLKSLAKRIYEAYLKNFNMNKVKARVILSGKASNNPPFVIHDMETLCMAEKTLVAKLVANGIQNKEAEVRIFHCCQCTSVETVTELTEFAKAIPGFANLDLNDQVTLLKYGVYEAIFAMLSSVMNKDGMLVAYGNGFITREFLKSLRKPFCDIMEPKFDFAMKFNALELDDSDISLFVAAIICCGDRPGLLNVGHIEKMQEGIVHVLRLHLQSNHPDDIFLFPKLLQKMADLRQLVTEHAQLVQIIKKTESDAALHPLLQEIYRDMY
Experimental: The activity of the compounds was tested as follows. The potency of substances which bind to human PPARalpha and activate it in an agonistic manner is analyzed using a stably transfected HEK cell line (HEK=human embryo kidney) which is referred to here as PPARalpha reporter cell line. It contains two genetic elements, a luciferase reporter element (pdeltaM-GAL4-Luc-Zeo) and a PPARalpha fusion protein (GR-GAL4-humanPPARalpha-LBD) which mediates expression of the luciferase reporter element depending on a PPARalpha ligand. The stably and constitutively expressed fusion protein GR-GAL4-humanPPARalpha-LBD binds in the cell nucleus of the PPARalpha reporter cell line via the GAL4 protein portion to the GAL4 DNA binding motifs 5′-upstream of the luciferase reporter element which is stably integrated in the genome of the cell line. There is only weak expression of the luciferase reporter gene in the absence of a PPARalpha ligand if fatty acid-depleted fetal calf serum (cs-FCS) is used in the assay. PPARalpha ligands bind and activate the PPARalpha fusion protein and thereby stimulate the expression of the luciferase reporter gene. The luciferase which is formed can be detected by means of chemiluminescence via an appropriate substrate.
The PPARalpha reporter cell line was prepared in two stages. Firstly, the luciferase reporter element was constructed and stably transfected into HEK cells. For this purpose, five binding sites of the yeast transcription factor GAL4 (Accession # AF264724) were cloned in 5′-upstream of a 68 bp-long minimal MMTV promoter (Accession # V01175). The minimal MMTV promoter section contains a CCAAT box and a TATA element in order to enable efficient transcription by RNA polymerase II. The cloning and sequencing of the GAL4-MMTV construct took place in analogy to the description of Sambrook J. et. al. (Molecular cloning, Cold Spring Harbor Laboratory Press, 1989). Then the complete Photinus pyralis gene (Accession # M15077) was cloned in 3′-downstream of the GAL4-MMTV element. After sequencing, the luciferase reporter element consisting of five GAL4 binding sites, MMTV promoter and luciferase gene was recloned into a plasmid which confers zeocin resistance in order to obtain the plasmid pdeltaM-GAL4-Luc-Zeo. This vector was transfected into HEK cells in accordance with the statements in Ausubel, F. M. et al. (Current protocols in molecular biology, Vol. 1-3, John Wiley & Sons, Inc., 1995).
In a second step, the PPARalpha fusion protein (GR-GAL4-humanPPARalpha-LBD was introduced into the stable cell clone described. For this purpose, initially the cDNA coding for the N-terminal 76 amino acids of the glucocorticoid receptor (Accession # P04150) was linked to the cDNA section coding for amino acids 1-147 of the yeast transcription factor GAL4 (Accession # P04386). The cDNA of the ligand-binding domain of the human PPARalpha receptor (amino acids S167-Y468; Accession # S74349) was cloned in at the 3′-end of this GR-GAL4 construct. The fusion construct prepared in this way (GR-GAL4-humanPPARalpha-LBD) was recloned into the plasmid pcDNA3 (Invitrogen) in order to enable constitutive expression therein by the cytomegalovirus promoter. This plasmid was linearized with a restriction endonuclease and stably transfected into the previously described cell clone containing the luciferase reporter element. The finished PPARalpha reporter cell line which contains a luciferase reporter element and constitutively expresses the PPARalpha fusion protein (GR-GAL4-human PPARalpha-LBD) was isolated by selection with zeocin (0.5 mg/ml) and G418 (0.5 mg/ml).
The activity of PPARalpha agonists is determined in a 3-day assay which is described below: […]

SMILES | pEC50 [1] | pEC50 [2]
Cc1nc(C2CCCCC2)sc1COc1ccc(-c2noc(=O)[nH]2)c(Cl)c1 [Example 5, 3-[2-Chloro-4-(2-cyclohexyl-4-methyl-thiazol-5-ylmethoxy)-phenyl]-4H-[1,2,4]oxadiazol-5-one] | 6.64 | 5.90
COCc1nc(CCC2CCCCC2)sc1COc1ccc(-c2noc(=O)[nH]2)c(Cl)c1 [Example 10, 3-{2-Chloro-4-[2-(2-cyclohexyl-ethyl)-4-methoxymethyl-thiazol-5-ylmethoxy]-phenyl}-4H-[1,2,4]oxadiazol-5-one] | 7.15 | 6.28
COCc1nc(C2CCCCCC2)sc1COc1ccc(-c2noc(=O)[nH]2)c(Cl)c1 [Example 11, 3-[2-Chloro-4-(2-cycloheptyl-4-methoxymethyl-thiazol-5-ylmethoxy)-phenyl]-4H-[1,2,4]oxadiazol-5-one] | 6.89 | 5.90
COCc1nc([C@H]2CC[C@H](c3ccc(Cl)cc3)CC2)sc1COc1ccc(-c2noc(=O)[nH]2)c(Cl)c1 [Example 12, Trans-3-(2-Chloro-4-{2-[4-(4-chloro-phenyl)-cyclohexyl]-4-methoxymethyl-thiazol-5-ylmethoxy}-phenyl)-4H-[1,2,4]oxadiazol-5-one] | 8.00 | 6.10
COCc1nc([C@H]2CC[C@H](C(F)(F)F)CC2)oc1COc1ccc(-c2noc(=O)[nH]2)c(Cl)c1 [Example 18a, Trans-3-{2-Chloro-4-[4-methoxymethyl-2-(4-trifluoromethyl-cyclohexyl)-oxazol-5-ylmethoxy]-phenyl}-4H-[1,2,4]oxadiazol-5-one] | 7.40 | 5.60
O=c1[nH]c(-c2ccc(OCc3sc(-c4ccc(C(F)(F)F)nc4)nc3CCCOCc3ccccc3)cc2Cl)no1 [Example 25, 3-{4-[4-(3-Benzyloxy-propyl)-2-(6-trifluoromethyl-pyridin-3-yl)-thiazol-5-ylmethoxy]-2-chloro-phenyl}-4H-[1,2,4]oxadiazol-5-one] | 9.52 | 7.12
Cc1nc(-c2ccc(C(F)(F)F)nc2)sc1C(OCc1ccc(-c2noc(=O)[nH]2)c(F)c1)C(F)(F)F (stereo not drawn) [Example 31, 3-(2-Fluoro-4-{2,2,2-trifluoro-1-[4-methyl-2-(6-trifluoromethyl-pyridin-3-yl)-thiazol-5-yl]-ethoxymethyl}-phenyl)-4H-[1,2,4]oxadiazol-5-one] | 7.85 | < 4.48
Cc1nc(-c2ccc(C(F)(F)F)nc2)sc1C(OCc1ccc(-c2noc(=O)[nH]2)c(Cl)n1)C(F)(F)F (stereo not drawn) [Example 37, 3-(2-Chloro-6-{2,2,2-trifluoro-1-[4-methyl-2-(6-trifluoromethyl-pyridin-3-yl)-thiazol-5-yl]-ethoxymethyl}-pyridin-3-yl)-4H-[1,2,4]oxadiazol-5-one] | 7.23 | < 4.48
Cc1nc([C@H]2CC[C@H](C(F)(F)F)CC2)sc1C(OCc1ccc(-c2noc(=O)[nH]2)c(C2CC2)c1)C(F)(F)F (stereo partly drawn) [Example 39, 3-(2-Cyclopropyl-4-{2,2,2-trifluoro-1-[4-methyl-2-(trans,1,4-trifluoromethyl-cyclohexyl)-thiazol-5-yl]-ethoxymethyl}-phenyl)-4H-[1,2,4]oxadiazol-5-one] | 7.07 | 5.26
Cc1nc(-c2cccc3cccnc23)sc1COc1ccc(-c2nc(=O)o[nH]2)c(Cl)c1 [Example 46, 3-[2-Chloro-4-(4-methyl-2-quinolin-8-yl-thiazol-5-ylmethoxy)-phenyl]-2H-[1,2,4]oxadiazol-5-one] | 5.13 | 5.36
CCC(Oc1cc(OC)c(-c2noc(=O)[nH]2)cc1F)c1sc([C@H]2CC[C@H](C(F)(F)F)CC2)nc1C (stereo partly drawn) [Example 51, 3-(5-Fluoro-2-methoxy-4-{1-[4-methyl-2-(trans-1,4-trifluoromethyl-cyclohexyl)-thiazol-5-yl]-propoxy}-phenyl)-4H-1,2,4-oxadiazol-5-one] | 8.15 | 6.47
CCC(Oc1ccc(-c2noc(=O)[nH]2)c(OC(F)F)c1)c1sc([C@H]2CC[C@H](C(F)(F)F)CC2)nc1CN1CCC(C(F)(F)F)CC1 (stereo partly drawn) [Example 61, 3-(2-Difluoromethoxy-4-{1-[2-(trans-1,4-trifluoromethyl-cyclohexyl)-4-(4-trifluoromethyl-piperidin-1-ylmethyl)-thiazol-5-yl]-propoxy}-phenyl)-4H-1,2,4-oxadiazol-5-one] | 8.15 | < 4.48
